Results: patent US20200390766A1, “PHARMACEUTICAL COMPOSITION” (Kowa Company, Ltd., priority 2019, published 2020)

Key:
Assay type in all cases: in vivo, male ICR mice
[1] = test system: pulmonary fibrosis model mice exposed to bleomycin in the trachea; experiment: Preventive effect on pulmonary fibrosis (Example 1): lung wet weight; settings: FIG. 1; for lung weight as compared to the normal group: lungs extracted 21 days after exposure
Procedure: (§1) Compound A was dissolved in a 0.5% aqueous solution of methylcellulose (methylcellulose: Shin-Etsu Chemical Co., Ltd., distilled water: Otsuka Pharmaceutical Factory, Inc.) to prepare a sample solution. Further, losartan (Tokyo Chemical Industry Co., Ltd.) was dissolved in a 0.5% aqueous solution of methylcellulose to prepare a sample solution. Furthermore, pirfenidone (Ark Pharma Inc.) was dissolved in a 0.5% aqueous solution of methylcellulose to prepare a sample solution.
(§2) 6-week-old male ICR mice (Japan SLC, Inc.) were exposed to bleomycin (Nippon Kayaku Co., Ltd.) (1.5 mg/kg) dissolved in physiological saline in the trachea to prepare pulmonary fibrosis model mice.
Investigation was conducted in mice not exposed to bleomycin (exposed to physiological saline in the trachea) in the normal group (6 mice), and pulmonary fibrosis model mice exposed to bleomycin in the trachea divided into 4 groups (control, compound A 50 mg/kg/day, losartan 50 mg/kg/day, and pirfenidone 400 mg/kg/day; 10 mice in each group). From the day after exposure to bleomycin, a 0.5% aqueous solution of methylcellulose was orally administered (administered twice a day) to the normal group and the control group, the sample solution of compound A prepared above was orally administered (administered once a day) to the compound A administration group, the sample solution of losartan prepared above was orally administered (administered once a day) to the losartan administration group, and the sample solution of pirfenidone prepared above was orally administered (administered twice a day) to the pirfenidone administration group, respectively. Twenty-one days after the bleomycin exposure, the mice were anesthetized and whole lung tissues were extracted.
After washing the lung tissue extracted from the mouse with physiological saline, water was removed with a filter paper, and the wet weight was measured.

[2] = test system: pulmonary fibrosis model mice exposed to bleomycin in the trachea; experiment: Therapeutic effect on pulmonary fibrosis (Example 2): amount of hydroxyproline in the lungs; settings: day 21, Dunnett test, FIG. 3
Procedure: The lung tissue extracted from the mouse was homogenized in a PBS solution, then mixed with an equal volume of 12N hydrochloric acid in a tube, and incubated at 110° C. for 20 to 24 hours. After the incubation, the solution was volatilized by opening the tube and continuing the incubation. Thereafter, the resulting mixture was suspended in a citrate acetate buffer (5% citric acid, 1.2% glacial acetic acid, 7.25% sodium acetate, 3.4% sodium hydroxide, pH 6.0), and the solution filtered with a 0.45 μm diameter centrifugal filter was used as a sample. 10 μL of the sample was added with 100 μL of chloramine T solution (1.4% chloramine T, 10% n-propanol, 80% citrate acetate buffer) and incubated at room temperature for 20 minutes, then added with 100 μL of Ehrlich's reagent (1 M p-dimethylamino benzaldehyde, 20% perchloric acid, 50% n-propanol) and incubated at 65° C. for 15 minutes, and the absorbance at 550 nm was measured to quantify the amount of hydroxyproline.
Compound A was dissolved in a 0.5% aqueous solution of methylcellulose (methylcellulose: Shin-Etsu Chemical Co., Ltd., distilled water: Otsuka Pharmaceutical Factory, Inc.) to prepare a sample solution. Further, losartan (Tokyo Chemical Industry Co., Ltd.) was dissolved in a 0.5% aqueous solution of methylcellulose to prepare a sample solution. Furthermore, pirfenidone (Ark Pharma Inc.) was dissolved in a 0.5% aqueous solution of carboxymethyl cellulose (carboxymethyl cellulose: Maruishi Pharmaceutical Co., Ltd.) to prepare a sample solution.
Model mice were prepared in the same manner as in Example 1.
(§3) Investigation was conducted in mice not exposed to bleomycin (exposed to physiological saline in the trachea) in the normal group (6 mice), and pulmonary fibrosis model mice exposed to bleomycin in the trachea divided into 4 groups (control, compound A 50 mg/kg/day, losartan 50 mg/kg/day, and pirfenidone 400 mg/kg/day; 10 mice in each group). […]
The amount of hydroxyproline in the mice was measured by the same method as in Example 1.

[3] = test system: pulmonary fibrosis model mice exposed to bleomycin in the trachea; experiment: Preventive effect on pulmonary fibrosis (Example 1): amount of hydroxyproline in the lungs; settings: 50 mg/kg/day oral once a day from the day after bleomycin exposure, day 21, FIG. 2; for amount of hydroxyproline in the lungs as compared to the control group: Dunnett test
Procedure: as §1, §2, §3
The lung tissue extracted from the mouse was homogenized in a PBS solution, then mixed with an equal volume of 12N hydrochloric acid in a tube, and incubated at 110° C. for 20 to 24 hours. […] 10 μL of the sample was added with 100 μL of chloramine T solution (1.4% chloramine T, 10% n-propanol, 80% citrate acetate buffer) and incubated at room temperature for 20 minutes, then added with 100 μL of Ehrlich's reagent (1 M p-dimethylamino benzaldehyde, 20% perchloric acid, 50% n-propanol) and incubated at 65° C. for 15 minutes, and the absorbance at 550 nm was measured to quantify the amount of hydroxyproline.

[4] = 50 mg/kg/day oral once a day from the day after bleomycin exposure
[5] = 50 mg/kg/day oral once a day from the 7th day after bleomycin exposure

SMILES	lung weight as compared with the control group ([1]; 50 mg/kg/day oral once a day from the day after bleomycin exposure, day 21, Dunnett test)	lung weight as compared to the normal group [1, 4]	amount of hydroxyproline in the lungs as compared to the control group [2, 5]	amount of hydroxyproline in the lungs as compared to the control group [3]	decrease of hydroxyproline in the lung relative to the losartan administration group [3]	lung weight as compared to the normal group ([1]; 400 mg/kg/day oral twice a day from the day after bleomycin exposure)	amount of hydroxyproline in the lungs as compared to the control group ([2]; 400 mg/kg/day oral twice a day from the 7th day after bleomycin exposure)
CCCc1nc(C(C)C)n(-c2ncc(OCC)cn2)c(=O)c1Cc1ccc(-c2ccccc2-c2noc(=O)[nH]2)nc1 [compound A, 3-[2-(5-{[1-(5-ethoxypyrimidin-2-yl)-2-isopropyl-6-oxo-4-propyl-1,6-dihydropyrimidin-5-yl]methyl}pyridin-2-yl)phenyl]-1,2,4-oxadiazol-5(4H)-one]	significant decrease in lung weight	no significant increase in lung weight	significant decrease in hydroxyproline in the lung	significant decrease in hydroxyproline in the lung	larger decrease than the losartan administration group	–	–
CCCCc1nc(Cl)c(CO)n1Cc1ccc(-c2ccccc2-c2nn[nH]n2)cc1 [losartan]	–	significant increase in lung weight	no significant difference	significant decrease in hydroxyproline in the lung	–	–	–
Cc1ccc(=O)n(-c2ccccc2)c1 [pirfenidone]	–	–	–	–	–	significant increase in lung weight	no significant difference
